Measured values taken from PMC2360332 (British Journal of Cancer, 2007).
Where two headings read alike, the source gives them in different places.

Columns and labels:
[1] = test system: MNU-induced breast cancers in rats; test: Prevention of MNU-induced mammary cancers in rats; conditions: for Inhibition of tumour formation (in words): Tam 6.25 μg animal^−1 day^−1 or higher, AFPep 270 μg animal^−1 day^−1; for Incidence (percent of rats with one or more tumours when killed, approximately 120 days after MNU): 20 days from 10 days after MNU 50 mg kg^−1, n=30 rats, control 78%; for Volume (sum of the volumes of tumours in each group) / Multiplicity (total number of tumours/number of rats) / Latency (mean number of tumour-free days±s.d.): 20 days; for Volume (sum of the volumes of tumours in each group): control 69.0; for Multiplicity (total number of tumours/number of rats): control 2.1; for Latency (mean number of tumour-free days±s.d.): control 80±31
Description: Female rats were housed three per cage in a room maintained at 22±1°C, and artificially lighted for 12 h per day. At 50 days of age, rats received a single injection of MNU (50 mg kg^−1 body weight) or vehicle in the jugular vein. N-methyl-N-nitrosourea was administered to animals in the various treatment groups according to a predetermined randomisation chart, so as to ensure uniform distribution of the carcinogen across the groups. […] A control group of animals received daily 0.2 ml s.c. injections of saline for the same time period as AFPep administration and experienced the maximal number of tumours. Starting 30 days after MNU treatment, all rats were palpated weekly for detection of mammary tumours, noting number, location, and size. Tumour burden was determined noninvasively using calipers to measure the long (D) and short (d) diameter of each tumour. Assuming that tumours were ellipsoid shaped, tumour volume was estimated as (0.52d^2D). Cage activity of all animals was monitored daily for gross signs of toxicity. At necropsy, body weight and organ weights were assessed as indicators of toxicity.
Sprague–Dawley female rats (n=30 rats group^−1) received MNU (50 mg kg^−1) at the age of 50 days. […] Animals were palpated weekly. The incidence of tumours is shown as a function of time after carcinogen treatment.

[2] = design: method as in earlier work; conditions: high doses; ref Mesfin et al, 2001; Bennett et al, 2002, 2006; Parikh et al, 2005; cited from earlier work
[3] = test system: phosphorylation of ER at serine 118; conditions: cited from earlier work
From the text: Mechanistically, AFPep is quite different from Tam. […] In fact, in this study and ...

[4] = test system: MCF-7 human breast cancer xenografts; test: MCF-7 human breast cancer xenograft under kidney capsule of SCID mice; type: in vivo, human (cells), SCID mice (host); conditions: E2 supplementation, five mice per group
From the text: Ten million MCF-7 human breast cancer cells were harvested from culture, centrifuged into a pellet, solidified into a fibrin clot, and implanted under the kidney capsule of SCID mice as described previously ([Bennett et al, 1985], [2002], [2006]; [Mesfin et al, 2001]; [Parikh et al, 2005]). Oestrogen supplementation was accomplished by s.c. implantation of a 5 mm silastic tubing capsule containing solid E2 inserted on the day of tumour implantation. […] The tumour-bearing kidney was exposed during survival laparotomy at 14 and 28 days after implantation and tumour size was measured using a dissecting microscope equipped with an ocular micrometer, noting the long (D) and short (d) diameters of the tumour. Five replicate mice were included in each treatment group. Mean tumour volume (0.52d^2D) was calculated for each group, and used for display of growth curves. Significance of differences between groups was tested using the one-sided Wilcoxon rank sum test.
Pieces of MCF-7 tumour were implanted under the kidney capsule of SCID mice. Oestradiol was provided via an E2-containing silastic tubing subcutaneous implant.

[5] = Toxicity in MNU-exposed rats (body weight, organ weights, fur texture, cage activity); type: in vivo, Sprague–Dawley rats; conditions: for Uterine weight / Heart weight / Body weight: 20 days; for Uterine weight: control 0.54±0.15; for Heart weight: control 1.10±0.14; for Body weight: control 283±30
From the text: [Swanson et al, 1997]). […] In the therapy model (human tumour xenografts growing in mice) and in the prevention model (MNU-induced mammary cancers in rats), the toxicity of […]

immature mouse uterus = test: Immature mouse uterine growth assay; type: in vivo, Swiss mice; conditions: uteri harvested 22 h later, five mice per group; for Growth of immature mouse uterus (in words): single agent i.p., Tam 1 μg or AFPep 10 μg
From the text: Control mice received the vehicle. Twenty-two hours later, uteri were harvested, trimmed free of connective tissue, and weighed. Uterine weights were normalised to donor mouse body weight. There were five replicate mice per group.
Twenty-two hours after treatment, uteri were harvested, weighed, and normalised to mouse body weight.

oestrogen receptor (ER) = test: Inhibition of binding of [^3H]E2 to oestrogen receptor (rabbit uterine cytosol); conditions: rabbit uterine cytosol 2.5 mg protein ml^−1, 20 μl of 10 nM 6,7-[^3H]E2, overnight at 4°C, pH 7.4, dextran-coated charcoal; triplicate
Description: Rabbit uteri (Pel-Freez Biological, Rogers, AR, USA) were used as a source of ER. Uteri were pulverised in a stainless-steel impact mortar under liquid nitrogen and homogenised (20% w/v) in buffer (10 mM Tris, pH 7.4, 1.5 mM EDTA, 10% glycerol, 10 mM monothioglycerol, and 10 mM sodium molybdate) on ice. Centrifugation (50 000 g) for 1 h yielded cytosol, which was adjusted with buffer to 2.5 mg protein ml^−1. All incubations were carried out in triplicate, each containing 100 μl of cytosol, 20 μl of 10 nM 6,7-[^3H]oestradiol (6,7-[^3H]E2), and 80 μl of antagonist. After incubation overnight at 4°C, tubes received 300 μl of dextran-coated charcoal suspension; tubes were agitated for 15 min, and then centrifuged (1000 g) for 15 min.
Rabbit uterine cytosol was used as a source of ER. Test agents (80 μl) at the final concentrations indicated were incubated in triplicate with 100 μl of cytosol, and 20 μl of 10 nM 6,7-[^3H]E2 (50 Ci mmol^−1). The concentration of the [^3H]E2 complex with receptor in the presence of the test agent is expressed as a percentage of the amount of complex formed in the absence of test agent.

[6] = test system: T47D human breast cancer cells; test: Growth of T47D human breast cancer cells in culture (7 days, viable cell count); type: cell-based; conditions: for Inhibition of basal (no E2) growth of T47D cells (in words): 10^−8 to 10^−5 M, data not shown; for Inhibition of E2-stimulated growth of T47D cells, single agent (in words): E2 10^−9 M added 1 h after agent, daily for 7 days, agent used alone, concentration–response in Figure 1A
Description: The MCF-7 cells were maintained in monolayer culture in Dulbecco's modification of Eagle's medium (DMEM) supplemented with 5% fetal bovine serum, glutamine (2 mM), nonessential amino acids (1%), and bovine insulin (1 μg ml^−1). The T47D human breast cancer cells were maintained in monolayer culture in RPMI-1640 medium supplemented with 10% fetal bovine serum, 100 IU ml^−1 penicillin, 100 μg ml^−1 streptomycin, 0.25 μg ml^−1 amphotericin B, and 8 μg ml^−1 bovine insulin in T-75 flasks with 2–3 medium changes per week. Cells were maintained at 37°C in an atmosphere of 5% CO2, 95% air. To evaluate the oestrogen-stimulated growth of these cells, they were released from monolayer using 0.25% trypsin/0.53 mM EDTA and suspended in oestrogen-free medium comprised of DMEM (high glucose, phenol red-free), supplemented with 10% charcoal-stripped bovine calf serum, 2 mM glutamine, 100 IU ml^−1 penicillin, and 100 μg ml^−1 streptomycin. One millilitre containing 1.2 × 10^5 cells was seeded into each well of a 24-well plate coated with collagen IV (BD Biosciences, Bedford, MA, USA). […] Control wells received the vehicle. Medium was changed every other day before treatment. One day after the last treatment, cells were trypsinised and resuspended in oestrogen-free medium, and counted using a haemacytometer following dilution with trypan blue. Viable cell number is reported.
T47D (1 × 10^5) cells were seeded into wells of collagen-coated plates in oestrogen-free medium. Medium was changed daily. Twenty-four hours after seeding, AFPep and/or Tam were added. One hour later E2 (10^−9 M) was added. Cells were treated daily for 7 days after which cells were harvested and counted in a hemacytometer. Mean viable cell number of six replicate wells ±s.e. was determined. (A) Concentration–response curve of each agent alone. Inhibition (%) of E2-stimulated growth is reported. (▪) Tam; (▴) AFPep. […] Mean viable cell number is reported.

[7] = higher dose: AFPep 270 μg/rat/day s.c. or Tam 6.25 μg/rat/day oral gavage
[8] = higher dose: AFPep 270 (marked * P<0.05 vs control) or Tam 6.25 μg/rat/day
[9] = higher dose: AFPep 270 or Tam 6.25 μg/rat/day
[10] = suboptimal dose: AFPep 100 μg/rat/day s.c., Tam 0.05 μg/rat/day oral gavage, or both (100+0.05)
[11] = suboptimal dose: AFPep 100, Tam 0.05, or both (100+0.05) μg/rat/day, AFPep and AFPep+Tam marked * P<0.05 vs control
[12] = suboptimal dose: AFPep 100, Tam 0.05, or both (100+0.05) μg/rat/day
[13] = effective single-agent dose: AFPep 10 μg mouse^−1 day^−1 i.p. or Tam 1 μg mouse^−1 day^−1 p.o., over a 30-day period
[14] = suboptimal dose: AFPep 0.1 μg i.p., Tam 0.05 μg p.o. per mouse per day, single agents
[15] = higher dose: AFPep 270 μg/rat/day

cyclo(EKTOVNOGN) (head to tail) [AFPep]
Inhibition of tumour formation (in words) [1]: significant inhibition of tumour formation
Incidence (percent of rats with one or more tumours when killed, approximately 120 days after MNU) [1, 7]: 40%
Volume (sum of the volumes of tumours in each group) [1, 8]: 34.5^* cm^3
Multiplicity (total number of tumours/number of rats) [1, 9]: 0.5 tumours/rat
Latency (mean number of tumour-free days±s.d.) [1, 9]: 88 ± 16 days
Incidence (percent of rats with one or more tumours when killed, approximately 120 days after MNU) [1, 10]: 63%
Volume (sum of the volumes of tumours in each group) [1, 11]: 39.1^* cm^3
Multiplicity (total number of tumours/number of rats) [1, 12]: 1.1 tumours/rat
Latency (mean number of tumour-free days±s.d.) [1, 12]: 97 ± 33 days
Toxicity or side effects in previous work (in words) [2]: no evidence of toxicity or side effects has been detected
Stimulation of phosphorylation of ER at serine 118 (in words) ([3]; ref Bennett et al, 2006): did not stimulate phosphorylation of ER at serine 118
Inhibition of phosphorylation of ER following ligand binding (in words) ([3]; stated in Discussion as function of AFPep, not measured in this paper): inhibit the phosphorylation of ER that follows ligand binding to ER
Growth of MCF-7 tumour xenografts (in words) [4, 13]: completely prevented the growth of MCF-7 tumour xenografts
Growth of MCF-7 tumour xenografts (in words) [4, 14]: tumour growth occurred, although it was less than tumour growth in nontreated mice
Uterine weight [5, 15]: 0.62 ± 0.17 g
Heart weight [5, 15]: 1.09 ± 0.13 g
Body weight [5, 9]: 280 ± 29 g
Effect on body weight, fur texture, cage activity, organ weights (in words) ([5]; rats, therapeutic doses for 2–3 weeks): no effect on body weight, fur texture, or cage activity during the lifespan of the animals, or on organ weights obtained at necropsy
Uterine weight [5, 12]: 0.52 ± 0.15 g
Heart weight [5, 12]: 1.12 ± 0.14 g
Body weight [5, 12]: 285 ± 24 g
Tam-induced growth of immature mouse uterus (in words) (immature mouse uterus; AFPep 10 μg i.p. 1 h before Tam 1 μg i.p., Figure 4 * P<0.05 vs Tam alone, Dunnett's test): significantly inhibits the Tam-induced growth of the immature mouse uterus
Growth of immature mouse uterus (in words) (immature mouse uterus): does not stimulate uterine growth
Inhibition of binding of [^3H]E2 to ER (in words) (oestrogen receptor (ER)): did not inhibit the binding of [^3H]E2 to ER
Inhibition of basal (no E2) growth of T47D cells (in words) [6]: neither Tam nor AFPep inhibited the basal (no E2) growth
Inhibition of E2-stimulated growth of T47D cells, single agent (in words) [6]: inhibited the E2-stimulated growth

CC/C(=C(\c1ccccc1)c1ccc(OCCN(C)C)cc1)c1ccccc1 [Tam, Tamoxifen, reference compound]
Inhibition of tumour formation (in words) [1]: significant inhibition of tumour formation
Incidence (percent of rats with one or more tumours when killed, approximately 120 days after MNU) [1, 7]: 26%
Volume (sum of the volumes of tumours in each group) [1, 8]: 70.2 cm^3
Multiplicity (total number of tumours/number of rats) [1, 9]: 0.5 tumours/rat
Latency (mean number of tumour-free days±s.d.) [1, 9]: 85 ± 15 days
Incidence (percent of rats with one or more tumours when killed, approximately 120 days after MNU) [1, 10]: 73%
Volume (sum of the volumes of tumours in each group) [1, 11]: 62.4 cm^3
Multiplicity (total number of tumours/number of rats) [1, 12]: 1.3 tumours/rat
Latency (mean number of tumour-free days±s.d.) [1, 12]: 95 ± 36 days
Stimulation of phosphorylation of ER at serine 118 (in words) ([3]; following binding to receptor, ref Chen et al, 2002): stimulates phosphorylation of ER at serine 118
Growth of MCF-7 tumour xenografts (in words) [4, 13]: completely prevented the growth of MCF-7 tumour xenografts
Growth of MCF-7 tumour xenografts (in words) [4, 14]: tumour growth occurred, although it was less than tumour growth in nontreated mice
Body weight [5, 9]: 273 ± 28 g
Effect on uterine growth (in words) ([5]; rats, low doses, whether or not AFPep was present): no effect on uterine growth
Uterine weight [5, 12]: 0.49 ± 0.17 g
Heart weight [5, 12]: 1.12 ± 0.13 g
Body weight [5, 12]: 282 ± 31 g
Growth of immature mouse uterus (in words) (immature mouse uterus): stimulates the growth of immature mouse uterus
Inhibition of binding of [^3H]E2 to ER (in words) (oestrogen receptor (ER)): concentration-dependent inhibition of E2 binding
Inhibition of basal (no E2) growth of T47D cells (in words) [6]: neither Tam nor AFPep inhibited the basal (no E2) growth
Inhibition of E2-stimulated growth of T47D cells, single agent (in words) [6]: inhibited the E2-stimulated growth
